How the values were obtained:
[1] = system: CD1^pcy/pcy mice; assay: Diuretic and urine osmolarity effect, single and increasing doses; assay type: in vivo, mouse
Description: The toxin was dissolved in 0.9% NaCl at a concentration of 1 mg/ml. Adult CD1^pcy/pcy (Takahashi et al., J. Urol., 1986, 135, 1280-1283, and J. Am. Soc. Nephrol., 1991, 1, 980-989 and Olbrich et al., Nature Genetics, 2003, 34, 455-459) and adult C57BL/6 mice were injected intraperitoneally and subcutaneously with the toxin at doses of 1, 0.1 and 0.01 μmol toxin/kg of body weight. One, three and five days after the first injection the mice were kept for 24 hours in metabolic cages. The collected urine was centrifuged for 30 minutes at 14,000 rpm. Urine osmolality (mOs/kg) was determined with a Knauer osmometer, urine volume (μl) was measured with a pipette.

[2] = system: CD1^pcy/pcy mice; assay: Cyst formation in pcy mice (kidney weight, cyst number); assay type: in vivo, mouse; conditions: 0.1 μmol/kg/day i.p., 99 days
Description: The toxin was dissolved in 0.9% NaCl at a concentration of 1 mg/ml. 10 week-old CD1^pcy/pcy mice were injected intraperitoneally with the toxin at a dose of 0.1 μmol toxin/kg of body weightday for 99 days. Then the mice were perfusion-fixed with 4% paraformaldehyde/1× phosphate-buffered saline, the kidneys and hearts were taken out and weighed. Then, the ratio of kidney weight or heart weightbody weight and kidney weightheart weight was calculated to evaluate an effect of the toxin on cyst formation. The kidneys were embedded in paraffin. Transverse kidney sections were stained with hematoxylin and eosin. Cyst number was determined using the program ImageJ and related to the size of the section thus arriving at the relative cyst number.

[3] = biological target: T1, hV2-Rluc receptor (Homo sapiens, UniProt P30518); assay: β-arrestin-1-YFP mobilization (BRET) to V2-Rluc in tsA cells; assay type: cell-based
T1 construct: expressed in transfected cells; host or cells: tsA cells (HEK293 derivative), transiently transfected
T1 sequence (P30518 whole entry): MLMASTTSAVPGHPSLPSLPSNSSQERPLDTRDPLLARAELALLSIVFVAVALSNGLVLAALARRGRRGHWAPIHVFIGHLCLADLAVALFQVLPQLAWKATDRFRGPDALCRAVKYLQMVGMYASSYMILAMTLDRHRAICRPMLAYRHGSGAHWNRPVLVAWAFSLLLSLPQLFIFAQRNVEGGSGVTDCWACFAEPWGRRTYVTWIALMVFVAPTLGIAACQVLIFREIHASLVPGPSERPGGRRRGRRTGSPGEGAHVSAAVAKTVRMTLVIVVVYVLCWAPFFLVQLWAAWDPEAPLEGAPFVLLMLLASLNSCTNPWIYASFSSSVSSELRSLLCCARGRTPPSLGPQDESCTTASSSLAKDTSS
Description: 2.5×10^6 tsA cells, a transformed human kidney (HEK293) cell line stably expressing an SV40 temperature sensitive T antigen (ECACC), transiently transfected with 150 ng of pRK5 expression plasmid for hV2Rluc ([sequence] #556104, BD BIOSCIENCE; Terrillon et al., Mol. Endocrinol., 2003, 17, 677-691) and with 1 μg of an expression plasmid for β-arrestin-1-YFP ((β-arrestin cloned into pEYFP-N1 (CLONTECH); Scott et al., J. Biol. Chem., 2002, 277, 3552-3559) were seeded in 6-well plates. 48 h after transfection, cells were washed with KREBS buffer containing 146 mM NaCl, 4.2 mM KCl, 0.5 mM MgCl2, 1 mM CaCl2, 10 mM HEPES pH 7.4, 1 mg/ml glucose and resuspended in 1 ml of this buffer. Bioluminescence Resonance Energy Transfer (BRET™) measurements between the V2-Rluc and β-arrestin-1-YFP were performed in 96-well plates with a final volume of 50 μl containing 30 μl of cell suspension (75,000 cells), 10 μl of KREBS buffer (control condition) or the mix of ligands containing either increasing concentrations of vasopressin (stimulated control condition) or in the presence of increasing concentrations of toxin (stimulated condition with inhibitor).

[4] = biological target: T2, Kir2.1 (Homo sapiens, UniProt P63252); assay: IonWorks electrophysiological assay; assay type: cell-based; conditions: 1 μM
T2 construct: expressed in transfected cells
T2 sequence (P63252 1-427): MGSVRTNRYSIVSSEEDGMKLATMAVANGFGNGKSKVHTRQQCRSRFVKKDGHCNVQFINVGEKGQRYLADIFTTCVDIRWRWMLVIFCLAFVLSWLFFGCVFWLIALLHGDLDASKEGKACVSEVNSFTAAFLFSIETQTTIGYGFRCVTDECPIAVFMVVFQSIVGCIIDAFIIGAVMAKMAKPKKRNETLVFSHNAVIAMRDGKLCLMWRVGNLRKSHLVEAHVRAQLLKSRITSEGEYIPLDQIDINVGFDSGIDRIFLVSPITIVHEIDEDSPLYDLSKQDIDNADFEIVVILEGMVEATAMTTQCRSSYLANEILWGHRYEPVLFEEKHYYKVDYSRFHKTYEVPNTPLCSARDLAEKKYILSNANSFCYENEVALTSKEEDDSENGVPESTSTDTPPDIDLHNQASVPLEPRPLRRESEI
Description: (§1) The stock solution was transferred to a master plate and into assay plates where 2 μl per well of the solution were placed. On the day of the assay, 198 μl of external solution containing the appropriate DMSO concentration was added and mixed thoroughly. This provided a 1:100 dilution. A further 1:3 dilution occurred upon addition to the cells in the IonWorks, giving a 1:300 dilution in total. On each assay plate, at least 8 wells were reserved for vehicle control (0.3% DMSO) and at least 8 wells for each positive control specific to the cell line tested. The positive controls were tested at a maximal blocking and an approximate IC50 concentration. The compounds used for positive controls: Nav1.5 100 μM and 5 mM Lidocaine, Kv4.3/KChIP2 20 μM and 500 μM Quinidine, Cav1.2 1 μM and 100 μM Nitrendipine, Kv1.5 300 μM and 10 mM 4-AP, KCNQ1/minK 10 μM and 100 μM Chromanol 293B, hERG 0.1 μM and 1 μM Cisapride, HCN4 50 μM and 3 mM Cesium, Kir2.1 20 μM and 500 μM Barium.

[5] = biological target: T3, Nav1.5 (Homo sapiens, UniProt Q14524); assay: IonWorks electrophysiological assay; assay type: cell-based; conditions: 1 μM
T3 construct: expressed in transfected cells
T3 sequence (Q14524 whole entry): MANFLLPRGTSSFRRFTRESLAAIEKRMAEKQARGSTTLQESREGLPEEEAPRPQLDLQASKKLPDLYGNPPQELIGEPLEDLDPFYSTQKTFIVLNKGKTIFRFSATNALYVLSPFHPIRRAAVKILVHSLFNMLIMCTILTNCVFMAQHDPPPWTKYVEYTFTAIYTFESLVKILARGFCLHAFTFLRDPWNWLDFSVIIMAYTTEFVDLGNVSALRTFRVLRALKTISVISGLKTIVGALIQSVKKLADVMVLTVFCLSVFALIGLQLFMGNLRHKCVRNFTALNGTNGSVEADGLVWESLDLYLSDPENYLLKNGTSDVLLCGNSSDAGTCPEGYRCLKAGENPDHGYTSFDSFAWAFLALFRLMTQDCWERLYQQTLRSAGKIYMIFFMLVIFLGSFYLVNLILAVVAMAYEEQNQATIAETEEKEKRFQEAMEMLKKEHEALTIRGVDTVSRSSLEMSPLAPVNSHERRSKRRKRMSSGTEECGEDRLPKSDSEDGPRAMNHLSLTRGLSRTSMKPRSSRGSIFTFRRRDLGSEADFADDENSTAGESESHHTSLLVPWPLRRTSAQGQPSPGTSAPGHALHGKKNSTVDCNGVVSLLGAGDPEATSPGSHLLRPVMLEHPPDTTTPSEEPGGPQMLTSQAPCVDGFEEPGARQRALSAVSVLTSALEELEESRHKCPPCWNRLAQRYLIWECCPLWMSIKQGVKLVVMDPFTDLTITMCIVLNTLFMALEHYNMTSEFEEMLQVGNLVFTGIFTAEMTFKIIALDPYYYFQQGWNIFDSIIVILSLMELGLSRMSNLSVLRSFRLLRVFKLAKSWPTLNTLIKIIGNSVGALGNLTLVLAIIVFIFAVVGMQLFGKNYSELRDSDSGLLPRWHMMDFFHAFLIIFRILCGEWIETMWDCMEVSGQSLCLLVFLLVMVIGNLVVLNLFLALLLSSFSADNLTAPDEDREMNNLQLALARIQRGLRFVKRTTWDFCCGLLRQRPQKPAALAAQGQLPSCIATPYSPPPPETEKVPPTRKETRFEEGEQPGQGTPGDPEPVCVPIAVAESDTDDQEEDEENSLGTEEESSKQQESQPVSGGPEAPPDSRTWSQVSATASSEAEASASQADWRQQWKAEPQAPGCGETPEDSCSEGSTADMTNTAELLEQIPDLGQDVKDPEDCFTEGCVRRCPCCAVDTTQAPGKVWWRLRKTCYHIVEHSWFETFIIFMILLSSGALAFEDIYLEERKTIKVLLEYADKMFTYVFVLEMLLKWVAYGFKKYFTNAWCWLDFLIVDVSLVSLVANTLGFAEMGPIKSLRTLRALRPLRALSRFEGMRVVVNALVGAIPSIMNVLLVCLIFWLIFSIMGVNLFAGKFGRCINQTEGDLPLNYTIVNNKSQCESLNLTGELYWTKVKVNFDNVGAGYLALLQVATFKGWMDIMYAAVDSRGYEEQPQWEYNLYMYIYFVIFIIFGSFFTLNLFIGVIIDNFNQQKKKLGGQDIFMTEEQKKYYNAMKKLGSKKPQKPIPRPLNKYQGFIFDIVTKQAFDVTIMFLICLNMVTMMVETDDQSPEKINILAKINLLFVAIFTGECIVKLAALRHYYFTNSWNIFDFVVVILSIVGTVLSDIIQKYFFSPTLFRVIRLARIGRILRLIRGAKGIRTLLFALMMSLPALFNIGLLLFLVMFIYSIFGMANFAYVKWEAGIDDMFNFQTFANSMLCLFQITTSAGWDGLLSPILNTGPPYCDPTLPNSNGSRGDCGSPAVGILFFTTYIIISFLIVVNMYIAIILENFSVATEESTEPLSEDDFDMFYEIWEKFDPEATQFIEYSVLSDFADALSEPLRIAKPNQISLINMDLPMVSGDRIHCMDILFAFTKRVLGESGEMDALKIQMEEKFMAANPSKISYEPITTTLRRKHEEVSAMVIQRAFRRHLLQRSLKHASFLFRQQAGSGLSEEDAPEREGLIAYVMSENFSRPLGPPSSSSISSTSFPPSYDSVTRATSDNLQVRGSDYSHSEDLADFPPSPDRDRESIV
Description: as §1

[6] = biological target: T4, HCN4 (Homo sapiens, UniProt Q9Y3Q4); assay: IonWorks electrophysiological assay; assay type: cell-based; conditions: 1 μM
T4 construct: expressed in transfected cells
T4 sequence (Q9Y3Q4 1-1203): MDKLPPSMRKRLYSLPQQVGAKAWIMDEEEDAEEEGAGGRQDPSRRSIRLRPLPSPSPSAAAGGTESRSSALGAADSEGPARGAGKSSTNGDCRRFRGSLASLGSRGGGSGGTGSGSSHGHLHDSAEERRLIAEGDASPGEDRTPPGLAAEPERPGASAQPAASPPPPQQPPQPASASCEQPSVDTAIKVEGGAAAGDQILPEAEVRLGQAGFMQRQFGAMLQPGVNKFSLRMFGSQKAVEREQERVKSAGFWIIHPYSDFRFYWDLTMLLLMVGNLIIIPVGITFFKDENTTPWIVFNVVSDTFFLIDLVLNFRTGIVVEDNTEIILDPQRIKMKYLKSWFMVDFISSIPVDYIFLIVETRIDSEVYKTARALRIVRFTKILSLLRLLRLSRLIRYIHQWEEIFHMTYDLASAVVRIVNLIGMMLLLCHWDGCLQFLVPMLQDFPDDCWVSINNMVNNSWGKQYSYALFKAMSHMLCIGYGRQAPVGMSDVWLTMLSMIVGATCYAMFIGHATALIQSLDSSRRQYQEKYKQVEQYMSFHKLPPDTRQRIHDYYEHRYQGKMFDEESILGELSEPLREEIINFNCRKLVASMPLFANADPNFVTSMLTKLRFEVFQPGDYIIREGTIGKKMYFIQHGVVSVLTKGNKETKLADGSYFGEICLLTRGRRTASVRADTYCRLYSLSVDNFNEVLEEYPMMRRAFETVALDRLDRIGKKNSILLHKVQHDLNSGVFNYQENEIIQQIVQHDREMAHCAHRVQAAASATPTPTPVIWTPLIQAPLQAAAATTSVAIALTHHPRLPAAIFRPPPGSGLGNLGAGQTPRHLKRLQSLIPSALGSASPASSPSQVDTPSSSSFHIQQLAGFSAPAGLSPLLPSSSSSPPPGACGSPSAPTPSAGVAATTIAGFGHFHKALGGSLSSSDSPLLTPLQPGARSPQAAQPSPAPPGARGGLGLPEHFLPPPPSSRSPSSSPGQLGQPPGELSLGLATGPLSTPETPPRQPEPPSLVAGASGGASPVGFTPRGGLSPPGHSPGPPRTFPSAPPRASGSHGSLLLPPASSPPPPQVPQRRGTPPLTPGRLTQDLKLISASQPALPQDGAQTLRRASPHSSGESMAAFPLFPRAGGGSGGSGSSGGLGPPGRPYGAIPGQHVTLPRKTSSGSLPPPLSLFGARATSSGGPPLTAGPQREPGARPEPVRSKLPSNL
Description: as §1

[7] = i.p. or s.c. injection at 1 μmol/kg, 24 h urine, vs basal state

SMILES: CC[C@H](C)[C@@H]1NC(=O)[C@H]([C@@H](C)O)NC(=O)[C@H](CO)NC(=O)[C@H](Cc2ccccc2)NC(=O)[C@H](CCCNC(=N)N)NC(=O)[C@H](CC(N)=O)NC(=O)[C@H](C)NC(=O)[C@H](CC(N)=O)NC(=O)CNC(=O)[C@H](CCCCN)NC(=O)[C@@H]2CSSC[C@@H]3NC(=O)[C@@H]4CCCN4C(=O)CNC(=O)[C@@H]4CCCN4C(=O)[C@H](CCCCN)NC(=O)[C@H](C(C)C)NC(=O)[C@@H]4CCCN4C(=O)[C@H](CC(C)C)NC(=O)[C@H](CC(N)=O)NC(=O)[C@@H](NC(=O)[C@H](Cc4ccccc4)NC(=O)[C@H](CO)NC(=O)[C@@H]4CCCN4C(=O)[C@@H](N)CCCNC(=N)N)CSSC[C@@H](C(=O)N[C@H](C(=O)NCC(=O)O)C(C)C)NC(=O)[C@H]([C@@H](C)O)NC(=O)[C@H](CCCNC(=N)N)NC(=O)[C@H](CCCNC(=N)N)NC(=O)[C@H](CSSC[C@H](NC(=O)[C@H](CCCCN)NC(=O)[C@H](CC(N)=O)NC(=O)[C@H]([C@@H](C)O)NC(=O)[C@H](CCCCN)NC(=O)[C@H](CCC(N)=O)NC(=O)[C@H](CO)NC(=O)[C@H](Cc4ccc(O)cc4)NC(=O)[C@H](Cc4ccc(O)cc4)NC(=O)[C@H](Cc4ccccc4)NC(=O)[C@H](C)NC(=O)[C@H](CO)NC(=O)[C@H](Cc4ccccc4)NC(=O)[C@H](Cc4ccccc4)NC(=O)CNC(=O)[C@H](CC(N)=O)NC3=O)C(=O)N[C@@H](Cc3c[nH]cn3)C(=O)N[C@@H](CO)C(=O)N[C@@H](Cc3ccccc3)C(=O)N[C@@H]([C@@H](C)O)C(=O)N[C@@H](Cc3ccc(O)cc3)C(=O)NCC(=O)NCC(=O)N2)NC(=O)[C@H](CCCCN)NC(=O)[C@H](CCC(=O)O)NC1=O [U-Da2a]
- dose sufficient to observe the maximal effect ([1]; i.p.): 0.1 µmol/kg
- urine osmolarity [1, 7]: strong decrease in osmolarity
- urine volume [1, 7]: strong increase in urine volume
- diuretic effect at increasing doses ([1]; i.p., 1, 0.1 and 0.01 μmol/kg): dose-dependent diuretic effect
- urine osmolarity at increasing doses ([1]; i.p., 1, 0.1 and 0.01 μmol/kg): decrease in urine osmolarity
- kidney weight [2]: reduces kidney weight
- number of cysts ([2]; histology): significantly reduces the number of cysts
- Kb [3]: 100 nM
- inhibition of Kir2.1 [4]: did not appear to exhibit significant inhibition
- inhibition of Nav1.5 [5]: did not appear to exhibit significant inhibition
- inhibition of HCN4 [6]: did not appear to exhibit significant inhibition

From patent publication US9631001B2, “Peptide antagonists of the vasopressin-2 receptor” (COMMISSARIAT A L'ENERGIE ATOMIQUE ET AUX ENERGIES …, priority 2012, dated 2017)
